Assay results published in patent publication US20130225548A1, “Pyridine Derivative and Medicinal Agent” (NIPPON SHINYAKU CO., LTD., priority 2010, published 2013).
Counter-ions that a name gives are not always drawn.

What follows are compounds tested against T1, Syk tyrosine kinase (Homo sapiens, UniProt P43405) (assay: Test for Syk tyrosine kinase inhibitory activity (ELISA)). Details: Syk tyrosine kinase (Carna Biosciences), 25 μM ATP in substrate solution, 30° C. 1 hour, n=2; read-out: Evaluation (IC50, concentration inhibiting the tyrosine kinase activity at 50%).
T1 construct: purchased Carna Biosciences, Inc
Format: biochemical
Method in brief: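 Syk kinase (0.025 nM stock before addition) with 625 nM biotinylated peptide and 25 μM ATP (substrate-solution levels) in Tris pH 7.5, MgCl2, DTT; 1 h at 30 °C on streptavidin plates. Phosphotyrosine detected by HRP anti-pTyr antibody, TMB, A450; IC50 by non-linear regression.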
An IC50 of 5 to 50 nM was found for `N#Cc1ccnc(Nc2cc(C3CC3)cc(-c3ccc4ccnc(N5CC[C@@H](N)C5)c4c3)n2)c1` [Example 169, hydrochloride] in this work. An IC50 of 5 to 50 nM was found for `N#Cc1ccnc(Nc2cc(C3CC3)cc(-c3ccc4ccnc(N5CCNC5=O)c4c3)n2)c1` [Example 171, 2-({4-cyclopropyl-6-[1-(2-oxo-imidazolidin-1-yl)isoquinolin-7-yl]pyridin-2-yl}amino)pyridine-4-carbonitrile hydrochloride] in this work. An IC50 of 5 to 50 nM was found for `N#Cc1ccnc(Nc2cc(C3CC3)cc(-c3ccc4ncn([C@H]5CC[C@H](N)CC5)c4c3)n2)c1` [Example 172, 2-({6-[1-(trans-4-aminocyclohexyl)-1H-benzimidazol-6-yl]-4-cyclopropylpyridin-2-yl}amino)pyridine-4-carbonitrile hydrochloride] in this work. An IC50 of less than 5 nM was found for `N#Cc1ccnc(Nc2cc(C3CC3)cc(-c3ccc4ncn(C5CCNCC5)c4c3)n2)c1` [Example 173, hydrochloride] in this work. An IC50 of 5 to 50 nM was found for `N#Cc1ccnc(Nc2cc(C3CC3)cc(-c3ccc4ncn(Cc5ccc(=O)[nH]c5)c4c3)n2)c1` [Example 174, 2-({4-cyclopropyl-6-[1-[(6-oxo-1,6-dihydropyridin-3-yl)methyl]-1H-benzimidazol-6-yl}pyridin-2-yl)amino]pyridine-4-carbonitrile hydrochloride] in this work. An IC50 of 50 to 500 nM was found for `N#Cc1ccnc(Nc2cc(C3CC3)cc(-c3ccc4nc([C@H]5CC[C@H](O)CC5)[nH]c4c3)n2)c1` [Example 175, 2-({4-cyclopropyl-6-[2-(trans-4-hydroxycyclohexyl)-1H-benzimidazol-6-yl]pyridin-2-yl}amino)pyridine-4-carbonitrile hydrochloride] in this work. An IC50 of 5 to 50 nM was found for `N#Cc1ccnc(Nc2cc(C3CC3)cc(-c3ccc4ncn([C@H]5CC[C@H](C#N)CC5)c4c3)n2)c1` [Example 176, 2-({6-[1-(trans-4-cyanocyclohexyl)-1H-benzimidazol-6-yl]-4-cyclopropylpyridin-2-yl}amino)pyridine-4-carbonitrile hydrochloride] in this work. An IC50 of 5 to 50 nM was found for `N#Cc1ccnc(Nc2cc(C3CC3)cc(-c3cnc(N4CCS(=O)(=O)CC4)c(F)c3)n2)c1` [Example 177, 2-{[4-cyclopropyl-6′-(1,1-dioxidethiomorpholin-4-yl)-5′-fluoro-2,3′-bipyridin-6-yl]amino}pyridine-4-carbonitrile hydrochloride] in this work.
